The values that follow come from the SangsterLogP compilation.

As for `O=C(O)CCCCCO/N=C(/c1ccnnc1)c1cccc(C(F)(F)F)c1`, the logP (usually the decadic logarithm of the partition coefficient of the neutral form, usually between octanol and water) worked out at 2.27.

Take `O=C(O)CCCO/N=C(\c1ccccc1)c1ccncn1`: the logP was -0.47.

For the compound `O=C(O)CCCCO/N=C(/c1ccnnc1)c1cccc(C(F)(F)F)c1`, the logP is 1.81.

`O=C(O)CCCO/N=C(\c1ccccc1)c1ncccn1` registered a logP of 0.36.

As to `O=C(O)CCCO/N=C(/c1ccccc1)c1cncnc1`, the logP was -0.38.

As for `O=C(O)CCCCCO/N=C(/c1ccccc1)c1ccncn1`, the logP turned out to be 0.08.

The compound `O=C(O)CCCCCO/N=C(\c1cncnc1)c1cccc(C(F)(F)F)c1` had a logP of 1.07.

For the compound `O=C(O)CCCCCO/N=C(/c1cccc(C(F)(F)F)c1)c1ncccn1`, the logP came out at 1.94.

For the compound `O=C(O)CCCCCO/N=C(\c1cccc(C(F)(F)F)c1)c1ccncn1`, the logP stood at 2.49.

In turn, `O=C(O)CCCCO/N=C(\c1ccccc1)c1cncnc1` gave a logP of -0.21.

Turning to `O=C(O)CCCCCO/N=C(\c1cccc(C(F)(F)F)c1)c1cccnn1`, the logP stood at 2.19.

Compound `O=C(O)CCCCO/N=C(\c1cncnc1)c1cccc(C(F)(F)F)c1` returned a log partition coefficient (logP) of 0.63.

As to `O=C(O)CCCCO/N=C(\c1cccc(C(F)(F)F)c1)c1ncccn1`, the logP stood at 1.53.

Take `O=C(O)CCCCCON=C(c1ccccc1)c1ncccn1`: the logP was found to be 1.07.

The compound `O=C(O)CCCCO/N=C(\c1ccccc1)c1ccncn1` showed a log partition coefficient (logP) of -0.19.

`O=C(O)CCCCO/N=C(\c1cccc(C(F)(F)F)c1)c1cnccn1` gave a logP of 1.08.

Compound `O=C(O)CCCCO/N=C(\c1ccccc1)c1ncccn1` came in with a logP of 0.5.

For `O=C(O)CCCCON=C(c1cccc(C(F)(F)F)c1)c1ccncn1`, the logP is 1.74.

Compound `O=C(O)CCCCCO/N=C(\c1cccc(C(F)(F)F)c1)c1cnccn1` gave a logP of 2.56.
